Experimental data published in US5817670A, “Naphthyridine derivatives and pharmaceutical compositions thereof” (Yamanouchi Pharmaceutical Co., Ltd., priority 1994, dated 1998).
Counter-ions that a name gives are not always drawn.

Key:
[1] = target: type I phosphodiesterase; assay: Phosphodiesterase inhibition activity (in vitro), Type I; assay type: biochemical, rat
Source text: (§1) (A) In order to evaluate selectivity of the compounds of the present invention for type IV phosphodiesterase, types I, II, III and V phosphodiesterase isozymes were purified in the following manner.
1) Solutions containing various phosphodiesterase (types I, II and III) isozymes were purified from rat heart muscle cells in the following manner. Under ether anesthesia, Wistar rat was subjected to thoracotomy to excise the heart. After removing blood by perfusion with physiological saline supplemented with heparin (1 unit/ml), the heart was finely chopped with scissors. This was suspended in buffer A (20 mM Bis-Tris, 5 mM dithioerythritol, 2 mM EGTA and 50 mM sodium acetate, pH 6.5) containing a protease inhibitor (50 μM phenyl-methyl-sulfonyl-fluoride, 5 μM pepstatin A, 40 μM leupeptin, 20 μM aprotinin or 2 mM benzamidine) and then the cells were disrupted using polytron and sonicator and subjected to ultracentrifugation (4° C., 100,000×g, 60 minutes) to give a soluble fraction.
(§2) 2) Solutions containing various phosphodiesterase isozymes were obtained from the thus obtained soluble fraction in the following manner. The thus, obtained soluble fraction was applied to a column of 1.6×10.0 cm packed with Q Sepharose which had been equilibrated with buffer A. Next, said column was washed with 300 ml of buffer A to remove non-absorbed protein. Phosphodiesterase was eluted with 200 ml of buffer A having 0.05 to 1.25M linear gradient of sodium acetate to collect about 40 fractions each containing 5.0 ml eluate. Each fraction was checked for cAMP- and cGMP-metabolizing phosphodiesterase activities. Of these fractions, a fraction having only cAMP-metabolizing activity and showing disappearance of the metabolizing activity by 0.1 μM cilostamide (a type III phosphodiesterase selective inhibitor) was used as the type III phosphodiesterase. […] These fractions were separately collected to be used as phosphodiesterase (types I, II and III) stock solutions for the examination of selectivity. p1 3) A solution containing type V phosphodiesterase was prepared from peripheral blood of a healthy person in the following manner. A 200 ml portion of physiological saline supplemented with dextran (3%) was added to 500 ml of heparinized peripheral blood and incubated at 37° C. for 40 minutes to effect precipitation of erythrocytes. The supernatant fluid after precipitation of erythrocytes was recovered and centrifuged once, and the resulting precipitate was suspended in buffer B (140 mM NaCl, 5 mM KCl, 5 mm glucose and 10 mM HEPES, pH 7.4), overlaid on a solution for density gradient centrifugation use (Ficoll solution) and then centrifuged at room temperature for 40 minutes at 450×g, thereby separating monocyte fraction and granulocyte fraction. The granulocyte fraction was washed once with buffer C (140 mM NaCl, 5 mM KCl, 1 mM CaCl2, 1 mM MgCl2, 5 mM glucose and 10 mM HEPES, pH 7.4) and suspended in buffer D (20 mM Bis-Tris, 5 mM dithioerythritol, 2 mM EGTA and 50 mM sodium acetate, pH 6.5) containing a protease inhibitor (40 μM leupeptin, 5 μM pepstatin A, 20 μM aprotinin, 50 μM phenyl-methyl-sulfonyl-fluoride or 2 mM benzamidine) and then the cells were disrupted using polytron and sonicator and subjected to ultracentrifugation (4° C., 100,000×g, 60 minutes) to give a soluble fraction.
(§3) (B) Inhibitory activities were measured using the thus obtained stock solutions of various phosphodiesterase isozymes.
(§4) 1) A predetermined amount of each compound to be tested was subjected to 10 minutes of reaction at 30° C. in a reaction mixture containing 40 mM Tris-HCl (pH 8.0), 5 mM MgCl2, 4 mM 2-mercaptoethanol, 10 μM rolipram (a type IV phosphodiesterase selective inhibitor), 1 μM cAMP, 10 nM ^3 H-cAMP (in the case of type V phosphodiesterase, 1 μM cAMP and 10 nM ^3 H-cAMP are replaced by 1 μM cGMP and 100 nM ^3 H-cGMP) and each of the isozyme stock solutions. […]

[2] = target: T1, type V phosphodiesterase (Homo sapiens, UniProt O76074); assay: Phosphodiesterase inhibition activity (in vitro), Type V; assay type: biochemical, human (peripheral blood of a healthy person); settings: 1 μM cGMP
T1 construct: from tissue; host or cells: human peripheral blood granulocyte fraction, soluble, Q Sepharose
Source text: as §1, §2
4) The thus obtained soluble fraction was applied to a column of 1.6×10 cm packed with Q Sepharose which had been equilibrated with buffer D. Next, the column was washed with 120 ml of buffer D to remove non-absorbed protein. Phosphodiesterase was eluted with 300 ml of buffer D having 0.05 to 1.25M linear gradient of sodium acetate to collect fractions each containing 5.0 ml eluate. Each fraction was checked for cAMP- and cGMP-metabolizing phosphodiesterase activities. Fractions having only cGMP metabolizing activity were collected to be used as the type V phosphodiesterase stock solution.
as §3
as §4, with “solutions. After completion of the reaction, the reaction mixture was boiled at 90° C. for 1 minute, ice-cooled, mixed with 1 unit of 5'-nucleotidase and then subjected to 10 minutes of reaction at 30° C., and the reaction was stopped by adding 1 ml of methanol.” for “solutions.”

Compound | IC50 [1] [nM] | IC50 [2] [µM]
CCn1c(=O)cc(-c2cccc(Cl)c2)c2cccnc21 [Example 15, 4-(3-Chlorophenyl)-1-ethyl-1,8-naphthyridin-2(1H)-one] | 33.8 | 41.2
Cc1cc(C)c2c(-c3cccc(Cl)c3)cc(=O)n(C)c2n1 [Example 24, 4-(3-chlorophenyl)-1,5,7-trimethyl-1,8-naphthyridin-2(1H)-one] | 41.9 | 9.7
CCc1cc(C)c2c(-c3ccccc3)cc(=O)n(C)c2n1 [Example 26, 7-Ethyl-1,5-dimethyl-4-phenyl-1,8-naphthyridin-2(1H)-one] | 23.4 | 27.3
CCc1cc(C)c2c(-c3cccc(Cl)c3)cc(=O)n(C)c2n1 [Example 27, 4-(3-Chlorophenyl)-7-ethyl-1,5-dimethyl-1,8-naphthyridin-2(1H)-one] | 21.3 | 27.9
CCn1c(=O)cc(-c2cccc(Cl)c2)c2c(C)cc(C)nc21 [Example 29, 4-(3-Chlorophenyl)-1-ethyl-5,7-dimethyl-1,8-naphthyridin-2(1H)-one] | 11.6 | 24.6
CCn1c(=O)cc(-c2cccc(Br)c2)c2c(C)cc(C)nc21 [Example 30, 4-(3-Bromophenyl)-1-ethyl-5,7-dimethyl-1,8-naphthyridin-2(1H)-one] | 9.9 | 8.66
CCc1cc(C)c2c(-c3cccc(Br)c3)cc(=O)n(CC)c2n1 [Example 31, 4-(3-bromophenyl)-1,7-diethyl-5-methyl-1,8-naphthyridin-2(1H)-one] | 4.3 | > 30
CCCn1c(=O)cc(-c2cccc(Br)c2)c2c(C)cc(CC)nc21 [Example 33, 4-(3-Bromophenyl)-7-ethyl-5-methyl-1-propyl-1,8-naphthyridin-2(1H)-one] | 14.3 | 8.39
CCc1cc(C)c2c(-c3cccc(Cl)c3)cc(=O)n(C3CC3)c2n1 [Example 35, 4-(3-Chlorophenyl)-1-cyclopropyl-7-ethyl-5-methyl-1,8-naphthyridin-2(1H)-on] | 24.2 | 41.6
CCn1c(=O)cc(-c2ccccc2)c2c(C)cc(C)nc21 [Example 38, 1-Ethyl-5,7-dimethyl-4-phenyl-1,8-naphthyridin-2(1H)-one] | 12.4 | 19.6
CCc1cc(C)c2c(-c3ccccc3)cc(=O)n(CC)c2n1 [Example 40, 1,7-Diethyl-5-methyl-4-phenyl-1,8-naphthyridin-2(1H)-one] | 12.9 | 14.5
CCc1cc(C)c2c(-c3cccc(Cl)c3)cc(=S)n(C)c2n1 [Example 43, 4-(3-chlorophenyl)-7-ethyl-1,5-dimethyl-1,8-naphthyridine-2(1H)-thione] | 16 | 4.79
CCn1c(=O)cc(C2CCCCC2)c2cccnc21 [Example 46, 4-cyclohexyl-1-ethyl-1,8-naphthyridin-2(1H)-one 0.45 hydrochloride 0.25 hydrate] | 38.9 | 87
CCc1cc(C)c2c(C3CCCCC3)cc(=O)n(CC)c2n1 [Example 49, 4-cyclohexyl-1,7-diethyl-5-methyl-1,8-naphthyridin-2(1H)-one] | 33.7 | 3.87
